Laboratory results as given in BindingDB's records for doi:10.1016/S0960-894X(00)80682-4 (1993).

How the values were obtained:
[1] = Tested for its activity to inhibit the binding of [125I]gastrin to gastric glands (gastrin) in guinea pig
[2] = Tested for its activity to inhibit the binding of [125I]CCK-33 to Cholecystokinin type B receptor in guinea pig brain
[3] = Tested for its activity to inhibit the binding of [125I]gastrin to gastric glands (gastrin) in guinea pig; remark: listed apart in the source

IC50 [1]	IC50 [2]	IC50 [3]	Structure (SMILES)
> 100 µM	> 100 µM	–	Cn1c(C(=O)Nc2cc3c4ccccc4nc-3c[nH]2)cc2ccccc21 [1-Methyl-1H-indole-2-carboxylic acid (9H-beta-carbolin-3-yl)-amide]
–	34 µM	14 µM	O=C(Cc1ccccc1)Nc1cc2c3ccccc3nc-2c[nH]1 [N-(9H-beta-Carbolin-3-yl)-2-phenyl-acetamide]
–	223 µM	> 100 µM	O=C(Nc1cc2c3ccccc3nc-2c[nH]1)c1ccccc1 [N-(9H-beta-Carbolin-3-yl)-benzamide]
